The values that follow come from publication PMC6278378, “Virtual Screening, Biological Evaluation, and 3D-QSAR Studies of New HIV-1 Entry Inhibitors That Function via the CD4 Primary Receptor” (Molecules, 2018).

Entries after “also recorded” stand apart in the source; their conditions may differ. Peptide text beside a SMILES is read from it.

One data set concerns HIV-1 (NL4-3 strain). As to the kind of experiment: microbe, parasite or virus in culture. In kind it is cell-based. As to conditions: Human immunodeficiency virus 1, NL43, PBMC; 0.1 μM, PBMCs; read-out: Inhibition of HIV-1 entry (intracellular p24). The method, then: We also performed anti-HIV-1 entry assays to investigate the potential suppression by 3 of HIV-1 infection via its entry mechanism.
The Anti-HIV-1 entry assay was performed by measuring intercellular p24 antigen. Before the infection, PBMCs (2.5 × 10^6 cells/mL) were added into 96-well plates at 100 μL/well, then co-incubated with compounds of various concentrations for 2 h. PBMCs were then washed twice with PBS and infected with the NL4-3 strain of HIV-1 at an MOI of 0.02 for 2 h at 37 °C with 5% CO2 (CO2 incubator, Eppendorf, Hamburg, Germany). After two washes with PBS (1200 rpm, 20 °C, 5 min), the cells were re-suspended in 100 µL complete medium and incubated for 24 h. Subsequently, the PBMCs were washed and resuspended in 100 µL/well lysis buffer containing 1% protease inhibitor cocktail (Sigma-Aldrich, St. Louis, MO, USA). The intercellular p24 antigen was measured according to the protocol provided with the HIV-1 ELISA kit (PerkinElmer Inc. Waltham, MA, USA).

Another data set addresses T1, CD4 (Homo sapiens, UniProt P01730).
T1 construct: endogenous in cells; host or cells: SUP-T1 cells
Put plainly: CD4 competitive binding assay (FITC anti-human CD4 antibody, SUP-T1 cells). Particulars: for inhibition at 100 µM / Inhibition at 100 μM (%): inhibition of anti-human CD4 antibody binding to SUP-T1 cells; for PInhibition (Experimental Data): transformed from % inhibition at 100 μM, presented as -ln. The method, then:
We chose CD4-expressing SUP-T1 cells to perform the competitive CD4 binding assay. Non-labeled anti-human CD4 antibody (RPA-T4 clone, BioLegend, San Diego, CA, USA) was used as a positive control.
The SUP-T1 cells were cultured in RPMI1640 medium supplemented with 10% (v/v) fetal bovine serum (FBS), 100 IU penicillin, 0.1 mg/mL streptomycin, and 2 mM L-glutamine. After collecting and washing twice with fluorescence activated cell sorting (FACS) buffer (0.5% BSA, 0.05% sodium azide in PBS) by centrifugation, SUP-T1 cells were seeded in a 96-well v-bottom plate at 5 × 10^5 cells/well. The supernatant was discarded by centrifugation and the cell pellet was resuspended with 50 μL various 2× concentrations of test compounds and 50 μL fluorescein isothiocyanate (FITC) labeled anti-human CD4 antibody (RPA-T4 clone, BioLegend, San Diego, CA, USA). The plate was incubated for 40 min on ice. After incubation, the cells were washed twice with FACS buffer by centrifugation, and then resuspended with the assay buffer. The FACS buffer was added at a volume of 50 μL per well. The fluorescence (485EX/528EM) was recorded using a Synergy II plate reader (BioTek Instruments, Inc., Winooski, VT, USA). Experimental data were generated in duplicate each time, and from at least three independent experiments. The mean values of fluorescence were normalized and expressed as a percentage of the control group values. Binding curves and IC50 values were calculated by GraphPad Prism 7 (GraphPad Software Inc., La Jolla, CA, USA) and presented as the mean ± SEM.

Another data set has as its system HIV-1 NL4-3 strain. Put plainly: Anti-HIV-1 infection assay (CEM-GFP reporter cells, GFP fluorescence). As to conditions: Human immunodeficiency virus 1, NL43, HIV-1 NL4-3, 4-5 days. Format: cell-based. From the text:
We performed anti-HIV-1 infection and anti-HIV-1 entry assays by measuring GFP expression and intracellular p24 antigen level. For the anti-HIV-1 infection assays, the CEM-GFP reporter cell line was used, and HIV-1 infection induced a 10- to 1000-fold increase in the relative fluorescence of the cells.
The CEM-GFP cells were obtained from the NIH AIDS program (NIH AIDS Reagent Program, Division of AIDS, NIAID, NIH: CEM-GFP Cells from Dr. Jacques Corbeil) and cultured in RPMI 1640 medium containing 10% FBS, 1% penicillin-streptomycin (Life Technologies, Carlsbad, CA, USA), 1% 200 mM L-glutamine (Mediatech-VWR, Aurora, CO, USA), and 500 µg/mL G418 (BioPioneer Inc, San Diego, CA, USA). After collecting and counting, the CEM-GFP cells were infected with HIV-1 NL4-3 strain (MOI 0.01) at 37 °C for 2–3 h, cells were then washed twice with PBS, and 10^5 cells/well were seeded into a 96-well plate in the presence of different concentrations of test compounds. After culturing at 37 °C with 5% CO2 for 4 or 5 days, the GFP fluorescence (485EX/528EM) was measured using a Synergy II microplate reader (BioTek Instruments, Inc., Winooski, VT, USA).

The subject of another data set is CEM-GFP cell line. Put plainly: CEM-GFP cell viability (CellTiter Blue). In kind it is cell-based. Particulars: highest concentration 25 µM. The source says:
Figure 3 The competitive CD4 binding assay results of analogs of 3 (A).
We also evaluated the anti-HIV-1 infection activity of 29 using the CEM-GFP reporter cell line.
For orientation: Resazurin is reduced to fluorescent resorufin, in cell work by metabolically active cells.

A further data set relates to HIV-1. The arrangement: method as in PMID 12207905. As to conditions: cited from earlier work.
For data set [1], the system named is HIV-1 nucleocapsid-p7 protein (NC-p7). More on the design: method as in PMID 12207905. Particulars: cited from earlier work.

Turning to `c1cc(CN2CCCNCCNCCCNCC2)ccc1CN1CCCNCCNCCCNCC1` [AMD3100, reference compound], in the data set on HIV-1 (NL4-3 strain), the inhibition at 0.1 µM turned out to be 57.6%.
For the molecule `Cn1c(=O)c2c(nc(NCCNc3nc4c(c(=O)n(C)c(=O)n4C)n3C)n2C)n(C)c1=O` [Compound 1], the inhibition at 100 µM at CD4 is 34.2%.
On the same count and under the same terms, then `Nc1ccc(S(=O)(=O)c2ccc(NCN3C(=O)NC(=O)C(=O)C3=O)cc2)cc1` [Compound 2], with 36.9%.
As for `N[C@@H](CSC1(c2ccc(Cl)cc2)c2ccccc2-c2ccccc21)C(=O)O` [Compound 4], on CD4, the inhibition at 100 µM stood at 22.6%.
In the case of `Nc1ccn([C@H]2O[C@H](CO)[C@@H]3[O][Sn]([c]4ccccc4)([c]4ccccc4)[O][C@H]32)c(=O)n1` [Compound 5], the “Inhibition at 100 μM (%)” value at CD4 amounted to 33.09%.
Regarding `Cc1cc(=O)oc2cc(O)cc(O)c12` [Compound 6], at CD4, the “Inhibition at 100 μM (%)” value came out at 5.64% and the “PInhibition (Experimental Data)” value is 2.762.
As for `CC(=O)c1c(O)c2ccccc2oc1=O` [Compound 7], on CD4, the “Inhibition at 100 μM (%)” value is reported as 8.87% and the “PInhibition (Experimental Data)” value worked out at 2.988.
For `CCCCC(=O)c1c(O)ccc2c(C)cc(=O)oc12` [Compound 8], on CD4, the “Inhibition at 100 μM (%)” value was 12.04% and the “PInhibition (Experimental Data)” value is 3.136.
On the same counts, the results for `CSCCC(NC(=O)C(CC(C)C)NC(=O)CNC(=O)C(NC(=O)C(Cc1ccccc1)NC(=O)C(CCC(N)=O)NC(=O)C(CC(=O)O)NC(=O)C(CO)NC(=O)C(CCCCN)NC(=O)C1CCCN1C(=O)C(NC(=O)C(N)CC(=O)O)C(C)C)C(C)C)C(N)=O` (stereo not drawn) [Compound 9] (H-DVPKSDQFVGLM-NH2; configuration not given here) are 6.40% and 2.835.
The corresponding values for `O=C(O)Cc1cc(=O)oc2cc(O)ccc12` [Compound 10] are 16.98% and 3.311.
On the same counts, the results for `Cc1cc(=O)oc2c(O)c(O)ccc12` [Compound 11] are 10.83% and 3.084.
In the case of `O=c1oc2cc(O)ccc2c2c1CCCC2` [Compound 12], at CD4, the “Inhibition at 100 μM (%)” value was found to be 5.27% and the “PInhibition (Experimental Data)” value was 2.745.
As for `CCC(=O)c1cc2ccc(O)cc2oc1=O` [Compound 13], at CD4, the “Inhibition at 100 μM (%)” value was determined as 11.80% and the “PInhibition (Experimental Data)” value was 3.126.
On the same counts, the results for `O=c1oc2cccc(O)c2c(O)c1Cc1ccccc1` [Compound 14] are 8.47% and 2.966.
For `CC(=O)/C=C(\c1ccccc1)c1c(O)c2ccccc2oc1=O` [Compound 15], on CD4, the “Inhibition at 100 μM (%)” value was determined as 15.80% and the “PInhibition (Experimental Data)” value was 3.273.
Regarding `CCC(=O)c1c(O)c2ccccc2oc1=O` [Compound 16], on CD4, the “Inhibition at 100 μM (%)” value worked out at 19.76% and the “PInhibition (Experimental Data)” value amounted to 3.391.
For `CCCCCCCCCCCC(=O)c1c(O)c2ccccc2oc1=O` [Compound 17], on CD4, the “PInhibition (Experimental Data)” value came to 3.774.
The same measure, in the same setting: the result for `CCCCC(=O)c1c(O)c2ccccc2oc1=O` [Compound 18] reads 3.771; that for `O=C(O)Cc1cc(=O)oc2cc(O)ccc12` [Compound 19], 3.668.
The same measure, in the same setting: then `O=C(/C=C/c1ccccc1)CCc1c(O)c2ccccc2oc1=O` [Compound 20], with 3.874.
With `O=C(O)Cc1cccc2c(=O)cc(-c3ccccc3)oc12` [Compound 21], on CD4, the inhibition at 100 µM is > 20% and the “PInhibition (Experimental Data)” value is on record as 3.702.
Turning to `Cc1ccc(-c2cc(=O)c3cccc(CC(=O)O)c3o2)cc1` [Compound 22], the “PInhibition (Experimental Data)” value at CD4 was found to be 3.809.
Take `O=C(O)CCc1cccc2c(=O)cc(-c3ccccc3)oc12` [Compound 23]: the “PInhibition (Experimental Data)” value at CD4 worked out at 3.690.
For `O=C(O)Cc1cccc2c(=O)cc(Cc3ccccc3)oc12` [Compound 24], at CD4, the “PInhibition (Experimental Data)” value is 3.920.
As for `O=C(O)Cc1cccc2c(=O)cc(C3CCCCC3)oc12` [Compound 25], the “PInhibition (Experimental Data)” value at CD4 was determined as 3.541.
Regarding `Cc1cc(=O)c2cccc(CC(=O)O)c2o1` [Compound 26], at CD4, the “Inhibition at 100 μM (%)” value worked out at 18.10% and the “PInhibition (Experimental Data)” value is 3.344.
As for `Cc1cc2c(=O)cc(-c3ccccc3)oc2c(C(=O)O)c1C` [Compound 27], the “PInhibition (Experimental Data)” value on CD4 is recorded as 4.024.
For the molecule `O=C(O)/C=C/c1c2ccc(=O)c(O)c-2oc2c(O)c(O)ccc12` [Compound 28], the “PInhibition (Experimental Data)” value on CD4 is 4.566.
For `O=C(O)/C=C/c1c2ccc(=O)c(O)c-2oc2c(O)c(O)ccc12` [Compound 29], the IC50 was 14 µM on CD4 (SUP-T1 cells, anti-human CD4 antibody competition) and 2 µM in the data set on HIV-1 NL4-3 strain. Also, the “PInhibition (Experimental Data)” value on CD4 is 4.763. Moreover, the “Cytotoxicity in CEM-GFP cell line” value in the data set with CEM-GFP cell line is given as “complete lack of cytotoxicity effect; also recorded: no cytotoxicity”. The “inhibition of HIV-1 infection” value in the data set on HIV-1 is given as “inhibit HIV-1 infection”. Further, the “binding to NC-p7” value in data set [1] was “bind”.
For the molecule `Cc1cc(=O)c2c(o1)-c1c(cc(O)c(O)c1C(=O)O)OC2` [Compound 30], on CD4, the “Inhibition at 100 μM (%)” value came out at 6.48% and the “PInhibition (Experimental Data)” value came out at 2.841.
As for `O=c1oc2c(cc1O)oc(=O)c1cc(O)c(O)c(O)c12` [Compound 31], the inhibition at 100 µM at CD4 is 16%.
Regarding `O=C(O)CCC(=O)c1ccc(Oc2ccccc2)cc1` [Compound 32], the “PInhibition (Experimental Data)” value at CD4 stood at 3.400.

One may read the inhibition as the share of the control response that was lost under treatment. A word on the Inhibition: it is the change of the read-out against control, counted positive when it falls. In general, IC50 refers to the midpoint of a concentration-inhibition curve.
